Laboratory results published in patent US20090304694A1, “Ang2 and Vegf Inhibitor Combinations” (AMGEN INC., priority 2006, published 2009).

Tested on: Colo205 colorectal cancer cell xenografts
Assay: Colo205 xenograft tumor volume, 2xCon4(C) (2.8 μg) and Avastin™ (10 μg) (Example 7)
Type: in vivo, female athymic nude mice (CD1 Nu/Nu)
Settings: Avastin™ 10 μg IP twice per week; 2xCon4(C) 2.8 μg sc twice per week; day 14 to day 42
Description: Xenografts of Colo205 cells injected into female athymic nude mice were treated with 2xCon4(C) alone, Avastin™, or a combination of the two as described below.
Tumors were induced by injecting Colo205 cells subcutaneously into female athymic nude mice (CD1 Nu/Nu), 8-10 weeks old. All of the mice were obtained from Charles River Laboratories (Raleigh, N.C.). Cells were harvested from subconfluent cultures using trypsin/EDTA. The cells were greater than 95% viable by […] exclusion. 2×10^6 cells in 0.2 ml were injected subcutaneously into the right flank of each mouse.
On day 14 after injection the tumors averaged 250 mm^3, and the mice were divided at random into four groups of 10 mice each. Group 1 received IgG1 at a dose of 10 μg and Fc fragment control at a dose of 2.8 μg and served as a negative control. Group 2 received Avastin™ at a dose of 10 μg and Fc fragment control at 2.8 μg. Group 3 received 2xCon4(C) at a dose of 2.8 μg and human IgG1 at a dose of 10 μg. […]
The experiment was performed “blind” in accordance with the Cancer Pharmacology Blinded Study Guidelines. Tumors were measured and body weights were determined twice each week. Tumors were measured with an electronic digital caliper. Tumor volumes were calculated as the length×width×height measurements and expressed in mm^3.
The data were analyzed by repeated measures ANOVA for tumor volumes over time using STATVIEW v. […]

For “Avastin™: recombinant humanized monoclonal antibody that binds directly to VEGF, sold by Genentech”, the “reduction / inhibition of tumor growth compared to the control” value was 18%.
